In ChEMBL document CHEMBL3621071, “Novel isoniazid-amidoether derivatives: Synthesis, characterization and antimycobacterial activity evaluation” (Medchemcomm, 2015):
≈ marks a conversion by molar mass, not a printed value. Calls of active or inactive are those of the source. The rule behind the calls is not given here.

Tests used:
THP-1 = assay: Cytotoxic activity against human THP1 cells; type: cell-based
[1] = tested on: Mycobacterium tuberculosis; assay: Antimycobacterial activity against Mycobacterium tuberculosis H37Rv ATCC 27294 assessed as inhibition of bacterial growth incubated for 14 days by inverted plate reader based macroscopy; type: functional; settings: H37Rv ATCC 27294, 336 h
[2] = tested on: Mycobacterium tuberculosis; assay: Antimycobacterial activity against Mycobacterium tuberculosis H37Rv infected in Balb/c mouse assessed as reduction in spleen bacterial load at 10 mg/kg, po dosed once daily 5 days per week for 10 weeks; type: functional, organism-based
[3] = tested on: Mycobacterium tuberculosis; assay: Antimycobacterial activity against Mycobacterium tuberculosis H37Rv infected in Balb/c mouse assessed as reduction in lung bacterial load at 10 mg/kg, po dosed once daily 5 days per week for 6; type: functional
[4] = tested on: Mycobacterium tuberculosis; assay: Antimycobacterial activity against Mycobacterium tuberculosis H37Rv infected in Balb/c mouse assessed as reduction in spleen bacterial load at 10 mg/kg, po dosed once daily 5 days per week for 6 weeks; type: functional
[5] = tested on: Mycobacterium tuberculosis; assay: Antimycobacterial activity against Mycobacterium tuberculosis H37Rv infected in Balb/c mouse assessed as reduction in lung bacterial load at 10 mg/kg, po dosed once daily 5 days per week for 3 weeks; type: functional
[6] = tested on: Mycobacterium tuberculosis; assay: Antimycobacterial activity against Mycobacterium tuberculosis H37Rv infected in Balb/c mouse assessed as reduction in spleen bacterial load at 10 mg/kg, po dosed once daily 5 days per week for 3 weeks; type: functional
[7] = tested on: Mycobacterium tuberculosis; assay: Antimycobacterial activity against Mycobacterium tuberculosis H37Rv infected in Balb/c mouse assessed as reduction in lung bacterial load at 10 mg/kg, po dosed once daily 5 days per week for 10; type: functional, organism-based
[8] = tested on: Mycobacterium tuberculosis; assay: Antimycobacterial activity against Mycobacterium tuberculosis H37Rv infected in Balb/c mouse assessed as reduction in spleen bacterial load at 25 mg/kg, po dosed once daily 5 days per week for 10 weeks; type: functional
[9] = tested on: Mycobacterium tuberculosis; assay: Antimycobacterial activity against Mycobacterium tuberculosis H37Rv infected in Balb/c mouse assessed as reduction in lung bacterial load at 25 mg/kg, po dosed once daily 5 days per week for 3 weeks; type: functional
[10] = tested on: Mycobacterium tuberculosis; assay: Antimycobacterial activity against Mycobacterium tuberculosis H37Rv infected in Balb/c mouse assessed as reduction in lung bacterial load at 25 mg/kg, po dosed once daily 5 days per week for 6 weeks; type: functional
[11] = tested on: Mycobacterium tuberculosis; assay: Antimycobacterial activity against Mycobacterium tuberculosis H37Rv infected in Balb/c mouse assessed as reduction in spleen bacterial load at 25 mg/kg, po dosed once daily 5 days per week for 3 weeks; type: functional
[12] = tested on: Mycobacterium tuberculosis; assay: Antimycobacterial activity against Mycobacterium tuberculosis H37Rv infected in Balb/c mouse assessed as reduction in lung bacterial load at 25 mg/kg, po dosed once daily 5 days per week for 10 weeks; type: functional
[13] = tested on: Mycobacterium tuberculosis; assay: Antimycobacterial activity against Mycobacterium tuberculosis H37Rv infected in Balb/c mouse assessed as reduction in spleen bacterial load at 25 mg/kg, po dosed once daily 5 days per week for 6 weeks; type: functional, organism-based
[14] = tested on: Mycobacterium tuberculosis; assay: Antimycobacterial activity against Mycobacterium tuberculosis H37Rv infected in Balb/c mouse assessed as reduction in lung bacterial load at 50 mg/kg, po dosed once daily 5 days per week for 3 to 10 weeks; type: functional, organism-based
[15] = tested on: Mycobacterium tuberculosis; assay: Antimycobacterial activity against Mycobacterium tuberculosis H37Rv infected in Balb/c mouse assessed as reduction in spleen bacterial load at 50 mg/kg, po dosed once daily 5 days per week for 10 weeks; type: functional
[16] = tested on: Mycobacterium tuberculosis; assay: Antimycobacterial activity against Mycobacterium tuberculosis H37Rv infected in Balb/c mouse assessed as reduction in spleen bacterial load at 100 mg/kg, po dosed once daily 5 days per week for 3 weeks; type: functional
[17] = tested on: Mycobacterium tuberculosis; assay: Antimycobacterial activity against Mycobacterium tuberculosis H37Rv infected in Balb/c mouse assessed as reduction in spleen bacterial load at 100 mg/kg, po dosed once daily 5 days per week for 10 weeks; type: functional
[18] = tested on: Mycobacterium tuberculosis; assay: Antimycobacterial activity against Mycobacterium tuberculosis H37Rv infected in Balb/c mouse assessed as reduction in lung bacterial load at 100 mg/kg, po dosed once daily 5 days per week for 3 to 10 weeks; type: functional, organism-based
[19] = tested on: Mycobacterium tuberculosis; assay: Antimycobacterial activity against Mycobacterium tuberculosis H37Rv infected in Balb/c mouse assessed as reduction in lung bacterial load at 25 mg/kg, po dosed once daily 5 days per week for 3 to 10 weeks; type: functional, organism-based
[20] = tested on: Mycobacterium tuberculosis; assay: Antimycobacterial activity against Mycobacterium tuberculosis H37Rv infected in Balb/c mouse assessed as reduction in spleen bacterial load at 50 mg/kg, po dosed once daily 5 days per week for 3 weeks; type: functional
[21] = tested on: Mycobacterium tuberculosis; assay: Antimycobacterial activity against Mycobacterium tuberculosis H37Rv infected in Balb/c mouse assessed as reduction in spleen bacterial load at 50 mg/kg, po dosed once daily 5 days per week for 6 weeks; type: functional

Compound | Activity (THP-1) | MIC99 [1] | also measured
O=C(COc1ccc(/C=N/NC(=O)c2ccncc2)cc1)Nc1ccc([N+](=O)[O-])cc1 | > 50 µM | 1.56 µM (≈ 0.654 µg/mL) | 
CO[C@H]1/C=C/O[C@@]2(C)Oc3c(C)c(O)c4c(O)c(c(/C=N/N5CCN(C)CC5)c(O)c4c3C2=O)NC(=O)/C(C)=C\C=C\[C@H](C)[C@H](O)[C@@H](C)[C@@H](O)[C@@H](C)[C@H](OC(C)=O)[C@@H]1C [RIFAMPIN] |  |  | Activity [2]: Active; Activity [3]: 2.8 log10CFU; Activity [4]: 3.31 log10CFU; Activity [5]: 1.93 log10CFU; Activity [6]: 1.76 log10CFU; Activity [7]: Active
CCc1ccc(NC(=O)COc2ccc(/C=N/NC(=O)c3ccncc3)cc2)cc1 | > 50 µM | 0.39 µM (≈ 0.157 µg/mL) | 
O=C(COc1ccc(/C=N/NC(=O)c2ccncc2)cc1)Nc1cccc(F)c1 | > 50 µM | 0.78 µM (≈ 0.306 µg/mL) | 
O=C(COc1ccc(/C=N/NC(=O)c2ccncc2)cc1)Nc1cccnc1 | > 50 µM | 0.39 µM (≈ 0.146 µg/mL) | 
O=C(COc1ccc(/C=N/NC(=O)c2ccncc2)cc1)Nc1ccccc1 | > 50 µM | 0.78 µM (≈ 0.292 µg/mL) | 
O=C(COc1ccc(/C=N/NC(=O)c2ccncc2)cc1)Nc1ccccc1Cl | > 50 µM | 0.78 µM (≈ 0.319 µg/mL) | 
O=C(COc1ccc(/C=N/NC(=O)c2ccncc2)cc1)Nc1cccc(Cl)c1 | > 50 µM | 0.78 µM (≈ 0.319 µg/mL) | 
CC(C)c1ccc(NC(=O)COc2ccc(/C=N/NC(=O)c3ccncc3)cc2)cc1 | > 50 µM | 0.39 µM (≈ 0.162 µg/mL) | 
Cc1ccc(CNC(=O)COc2ccc(/C=N/NC(=O)c3ccncc3)cc2)cc1 | > 50 µM | 0.39 µM (≈ 0.157 µg/mL) | 
O=C(COc1ccc(/C=N/NC(=O)c2ccncc2)cc1)NCCc1ccccc1 | > 50 µM | 0.78 µM (≈ 0.314 µg/mL) | 
O=C(COc1ccc(/C=N/NC(=O)c2ccncc2)cc1)Nc1ccc(Cl)cc1 | > 50 µM | 0.39 µM (≈ 0.159 µg/mL) | 
NNC(=O)c1ccncc1 [ISONIAZID] |  | 0.39 µM (≈ 0.0535 µg/mL) | Activity [8]: Active; Activity [9]: 1.22 log10CFU; Activity [10]: 2.59 log10CFU; Activity [11]: 2.66 log10CFU; Activity [12]: 3.38 log10CFU; Activity [13]: Active
O=C(COc1ccc(/C=N/NC(=O)c2ccncc2)cc1)Nc1cccc2ccccc12 | > 50 µM | 1.56 µM (≈ 0.662 µg/mL) | 
COc1ccc(CNC(=O)COc2ccc(/C=N/NC(=O)c3ccncc3)cc2)cc1 | > 50 µM | 0.39 µM (≈ 0.163 µg/mL) | 
O=C(COc1ccc(/C=N/NC(=O)c2ccncc2)cc1)Nc1ccccn1 | > 50 µM | 0.78 µM (≈ 0.293 µg/mL) | 
Cc1ccc(NC(=O)COc2ccc(/C=N/NC(=O)c3ccncc3)cc2)cc1 | > 50 µM | 0.39 µM (≈ 0.151 µg/mL) | Activity [14]: inactive; Activity [15]: 2.14 log10CFU; Activity [16]: 1.77 log10CFU; Activity [8]: 1.23 log10CFU; Activity [17]: 3.11 log10CFU; Activity [18]: inactive; Activity [11]: 1.19 log10CFU; Activity [19]: inactive; Activity [20]: 1.4 log10CFU; Activity [21]: 2.28 log10CFU
O=C(COc1ccc(/C=N/NC(=O)c2ccncc2)cc1)Nc1ccc(F)cc1 | > 50 µM | 0.78 µM (≈ 0.306 µg/mL) | 
COc1ccc(NC(=O)COc2ccc(/C=N/NC(=O)c3ccncc3)cc2)cc1 | > 50 µM | 0.39 µM (≈ 0.158 µg/mL) | 
O=C(COc1ccc(/C=N/NC(=O)c2ccncc2)cc1)Nc1cccc(Br)c1 | > 50 µM | 0.78 µM (≈ 0.354 µg/mL) | 
O=C(COc1ccc(/C=N/NC(=O)c2ccncc2)cc1)Nc1ccccc1F | > 50 µM | 0.78 µM (≈ 0.306 µg/mL) | 
O=C(COc1ccc(/C=N/NC(=O)c2ccncc2)cc1)Nc1ccccc1Br | > 50 µM | 0.78 µM (≈ 0.354 µg/mL) | 
O=C(COc1ccc(/C=N/NC(=O)c2ccncc2)cc1)NCc1ccccc1 | > 50 µM | 0.78 µM (≈ 0.303 µg/mL) | 
O=C(COc1ccc(/C=N/NC(=O)c2ccncc2)cc1)Nc1ccc(Br)cc1 | > 50 µM | 0.78 µM (≈ 0.354 µg/mL) | 
